Article PMC11755020 (Computational and Structural Biotechnology Journal, 2024)
pKd: −log10 of the molar value.

biological target: T1, HNF4α (hepatocyte nuclear factor 4α) (Homo sapiens, UniProt P41235); experiment: microscale thermophoresis; assay type: binding
T1 sequence (P41235 147-377 limits assumed): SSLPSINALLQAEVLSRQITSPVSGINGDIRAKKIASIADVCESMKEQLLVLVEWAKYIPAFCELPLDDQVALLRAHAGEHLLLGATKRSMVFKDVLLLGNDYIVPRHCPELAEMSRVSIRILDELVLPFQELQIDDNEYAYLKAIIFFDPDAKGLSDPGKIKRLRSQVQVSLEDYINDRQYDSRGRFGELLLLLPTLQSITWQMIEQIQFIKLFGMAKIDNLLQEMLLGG

First: O=C(/C=C/c1ccc(O)c(O)c1)O[C@H](Cc1ccc(O)c(O)c1)C(=O)O [rosmarinic acid]
Second: O=C(/C=C/c1ccc(O)c(O)c1)O[C@@H]1C[C@@](OC(=O)/C=C/c2ccc(O)c(O)c2)(C(=O)O)C[C@@H](O)[C@@H]1O [cynarin]
The pKd of the first is 1.95 log units higher: 4.46 for the first, 2.51 for the second. The first binds more tightly here.

`COc1c(/C=C/C(=O)c2ccc(O)cc2)ccc(O)c1O` [licochalcone B] showed a pKd of 4.11.
